In patent US20230011869A1 (Hoffmann-La Roche Inc., priority 2018, published 2023):
Structures can show the parent of a compound that is named as a salt. Where two headings read alike, the source gives them in different places.

Test system: Acinetobacter baumannii ATCC17978
Test: Antimicrobial susceptibility testing: 90% growth inhibitory concentration (IC90) determination, Iso-Sensitest broth
Assay type: cell-based
Procedure, shortened: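 A. baumannii ATCC17978 grown in Iso-Sensitest broth across 10 compound concentrations at 35±2 °C.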

[1] = Acinetobacter baumannii, ATCC17978, 16 h, read-out: ATCC17978 IC90, 90% growth inhibitory concentration, Acinetobacter baumannii ATCC17978, Iso-Sensitest broth, OD 600 nm over 16 h

Row | IC90 (90% growth inhibitory concentration, Acinetobacter baumannii ATCC17978, Iso-Sensitest broth, OD 600 nm over 16 h, read-out: ATCC17978 IC90) [nM] | Compound | IC90 [1] [nM]
1 | – | Cc1cc(Nc2nccn3c(-c4ccc(OC(F)F)cc4)cnc23)ccc1C(=O)N1CCC(C(=O)NC[C@@H](O)CN)CC1 [Example 554, (S)-N-(3-amino-2-hydroxypropyl)-1-(4-((3-(4-(difluoromethoxy)phenyl)imidazo [1,2-a]pyrazin-8-yl)amino)-2-methylbenzoyl)piperidine-4-carboxamide formate] | 344
2 | – | CCc1cc(Nc2nccn3c(-c4ccc(OC(C)C#N)c(F)c4F)cnc23)ccc1C(=O)N1CCN(CCN(C)C)CC1 (stereo not drawn) [Example 557, 2-(4-(8-((4-(4-(2-(dimethylamino)ethyl)piperazine-1-carbonyl)-3-ethylphenyl)amino)imidazo[1,2-a]pyrazin-3-yl)-2,3-difluorophenoxy)propanenitrile] | 694
3 | 922 | COc1ccc(-c2cnc3c(Nc4ccc(C(=O)N5CCC(C(=O)N6CCN[C@@H](C(=O)O)C6)CC5)c(C)c4)nccn23)cc1F [Example 558, (R)-4-(1-(4-((3-(3-fluoro-4-methoxyphenyl)imidazo[1,2-a]pyrazin-8-yl)amino)-2-methylbenzoyl)piperidine-4-carbonyl)piperazine-2-carboxylic acid hydrochloride] | –
4 | – | Cc1cc(Nc2nccn3c(-c4ccc(O[C@H](C)C#N)c(F)c4F)cnc23)ccc1C(=O)N1CCN(C(=O)[C@@H]2C[C@@H](O)CN2)CC1 [Example 559, (2R)-2-[2,3-difluoro-4-[8-[4-[4-[(2S,4R)-4-hydroxypyrrolidine-2-carbonyl]piperazine-1-carbonyl]-3-methyl-anilino]imidazo[1,2-a]pyrazin-3-yl]phenoxy]propanenitrile formate] | 699
5 | – | Cc1cc(Nc2nccn3c(-c4ccc(O[C@H](C)C#N)c(F)c4F)cnc23)ccc1C(=O)N1CCN(C(=O)C2(O)CCNCC2)CC1 [Example 560, (2R)-2-[2,3-difluoro-4-[8-[4-[4-(4-hydroxypiperidine-4-carbonyl)piperazine-1-carbonyl]-3-methyl-anilino]imidazo[1,2-a]pyrazin-3-yl]phenoxy]propanenitrile formate] | 746
6 | – | COc1ccc(-c2cnc3c(Nc4ccc(C(=O)N5CCN(C(=O)[C@@H]6C[C@@H](OC(=O)[C@@H](N)CCCCN)CN6)CC5)c(C)c4)nccn23)c(F)c1F [Example 561, [(3R,5S)-5-[4-[4-[[3-(2,3-difluoro-4-methoxy-phenyl)imidazo[1,2-a]pyrazin-8-yl]amino]-2-methyl-benzoyl]piperazine-1-carbonyl]pyrrolidin-3-yl] (2S)-2,6-diaminohexanoate formate] | 123
7 | – | COc1ccc(-c2cnc3c(Nc4ccc(C(=O)N5CCN(C(=O)[C@@H]6C[C@@H](OC(=O)CN)CN6)CC5)c(C)c4)nccn23)c(F)c1F [Example 562, [(3R,5S)-5-[4-[4-[[3-(2,3-difluoro-4-methoxy-phenyl)imidazo[1,2-a]pyrazin-8-yl]amino]-2-methyl-benzoyl]piperazine-1-carbonyl]pyrrolidin-3-yl]2-aminoacetate formate] | 112
8 | – | COc1ccc(-c2cnc3c(Nc4ccc(C(=O)N5CCN(C(=O)[C@@H]6C[C@@H](OC(=O)[C@@H](N)CO)CN6)CC5)c(C)c4)nccn23)c(F)c1F [Example 563, [(3R,5S)-5-[4-[4-[[3-(2,3-difluoro-4-methoxy-phenyl)imidazo[1,2-a]pyrazin-8-yl]amino]-2-methyl-benzoyl]piperazine-1-carbonyl]pyrrolidin-3-yl] (2S)-2-amino-3-hydroxy-propanoate formate] | 135
9 | – | CCC(C#N)Oc1ccc(-c2cnc3c(Nc4ccc(C(=O)N5CCC(CN)CC5)c(C)c4)nccn23)c(F)c1F (stereo not drawn) [Example 564, 2-(4-(8-((4-(4-(aminomethyl)piperidine-1-carbonyl)-3-methylphenyl)amino)imidazo [1,2-a]pyrazin-3-yl)-2,3-difluorophenoxy)butanenitrile formate] | 969
